Measurements published in patent US10080748B2, “Use of flap inhibitors to reduce neuroinflammation mediated injury in the central nervous system” (Bioscience Pharma Partners, LLC, priority 2014, dated 2018).

Legend:
[1] = test system: leukotriene LTC4 production; assay: LTC4 levels in brain after rat fluid percussion injury (RP LC-MS/MS); format: in vivo
Procedure: Craniotomy and lateral fluid percussion injury (FPI) were performed using a previously validated and published procedure. Farias S, et al. J. Neurotraum, 26, 1977-1986, 2009; Frey L. C. et al. J. Neurosci. Methods 177, 267-272, 2009. Throughout the specification animals subjected to this protocol are referred to as having a TBI since this treatment protocol is a TBI model. Briefly, rats were anesthetized with 3-5% isoflurane, isosol, VEDCO Inc., St. Joseph, Mo., via nose cone and mounted in a stereotaxic head frame. A 3 millimeter (mm) craniotomy was created and centered at 3 mm caudal to bregma and 3.5 mm left of the sagittal suture, keeping the exposed dura intact. One steel support screw was embedded in the skull on the contralateral side. A Luer-Lock hub with an inside diameter of 3.5 mm was centered over the craniotomy and bonded to the skull with cyanoacrylate adhesive and capped. Dental acrylic, Snap, Parka, Inc., Edgewood, N.J., was poured around the huh and screw. After the acrylic hardened antibiotic ointment was applied around the cap and the animals were returned to their cages. The next day, approximately 15-20 hours later, animals were anesthetized with isoflurane in an induction chamber, immediately connected to the FPI apparatus, and received a 20 millisecond (ms) pulse of pressurized sterile saline at 2.7 atmospheres (atm) of pressure to simulate a moderate severity impact on the intact dural surface through the craniotomy before awakening from anesthesia. […] All animals received a subcutaneous injection of the analgesic, buprenorphine, 0.05 milligram/kilogram (mg/kg) Buprenex, prior to craniotomy, and subsequent injections every 12 hours for two days. Moistened food pellets were provided after injury, and all animals were monitored daily for well-being and weight changes.
Two groups of four rats each were subjected to FPI as described above. Four days prior to the FPI, each animal was briefly anesthetized for less than 5 minutes with 3-3.5% isoflurane and administered either NaCl 0.9%, 2 ml/kg IV (vehicle) or vinblastine sulfate 0.5 mg/kg IV in an identical volume. Neutrophil depletion was verified by complete cell blood counts (CBC) in vinblastine treated animals 4 days after administration. Both groups were euthanized by decapitation and the brain lipids extracted 1 hour after FPI. The amounts of LTC4 formed, measured by RP LC-MS/MS and normalized per milligram of protein, were compared between groups using one-way analysis of variance and the Student-Newman-Keuls test for multiple comparisons.
The indole FLAP inhibitor MK-886 was prepared at a dose of 2.5 milligram/milliliter (mg/ml), dissolved in dimethyl sulfoxide (DMSO) and then diluted with 0.9% saline to 10% DMSO. The rats were briefly anesthetized with 3-3.5% isoflurane and either […] at a dose of 6 mg/kg or vehicle was administered intravenously (IV) by tail vein injection. All animals were allowed to wake before undergoing additional procedures.
Cortical and hippocampal regions from ipsilateral and contralateral hemispheres were collected in 4 ml of 80% methanol, homogenized with a Dounee homogenizer, and internal standards were added to the homogenates. Protein content was measured using bicinchoninic acid assay (BCA) for protein to normalize lipid levels to the amount of tissue. Samples were centrifuged and the supernatant was collected. Samples were diluted to a final methanol concentration of lower than 15% and then the lipids were extracted using a solid phase extraction cartridge, Strata C18-E, 100 mg/1 ml, Phenomenex, Torrence Calif. The eluate, 1 ml of methanol, was dried down and reconstituted in 70 microliters (μl) of High Performance Liquid Chromotography (HPLC) solvent A, which is 8.3 mM acetic acid buffered to pH 5.7 with NH4OH, plus […] of solvent B, which is acetonitrile/methanol, 65/35, v/v. […]

[2] = test system: rats subjected to FPI (TBI model); assay: Rotarod vestibulomotor performance after TBI (rat FPI); format: in vivo; conditions: administered 15 minutes after TBI
Procedure: Craniotomy and lateral fluid percussion injury (FPI) were performed using a previously validated and published procedure. Farias S, et al. J. Neurotraum, 26, 1977-1986, 2009; Frey L. C. et al. J. Neurosci. Methods 177, 267-272, 2009. Throughout the specification animals subjected to this protocol are referred to as having a TBI since this treatment protocol is a TBI model. Briefly, rats were anesthetized with 3-5% isoflurane, isosol, VEDCO Inc., St. Joseph, Mo., via nose cone and mounted in a stereotaxic head frame. A 3 millimeter (mm) craniotomy was created and centered at 3 mm caudal to bregma and 3.5 mm left of the sagittal suture, keeping the exposed dura intact. One steel support screw was embedded in the skull on the contralateral side. A Luer-Lock hub with an inside diameter of 3.5 mm was centered over the craniotomy and bonded to the skull with cyanoacrylate adhesive and capped. Dental acrylic, Snap, Parka, Inc., Edgewood, N.J., was poured around the huh and screw. […] Moistened food pellets were provided after injury, and all animals were monitored daily for well-being and weight changes.
For rotarod testing, the rod's rotation was programmed to accelerate from 0 to 50 rpm over the course of 300 seconds. Four trials were run at each selected time point after injury and the individual trial and mean times for each animal are recorded. […]

human whole blood = assay: Human whole blood bioassay of LTB4, 5-HETE and AA production; format: cell-based; conditions: human whole blood; data not shown
Description: The results are for the effects of these two FLAP inhibitors on LTB4 production and 5-HETE production. It is known that indole-acetic acid FLAP inhibitors like MK-886, MK-591 display high plasma protein binding. Thus, the potencies of these FLAP inhibitors for blocking leukotrienes in vivo are about 100 fold higher than the affinity of the inhibitors for FLAP binding. The inventors developed a bioassay that closely predicts the in vivo potency of FLAP inhibitors using human whole blood. Briefly, whole blood is incubated with a calcium ionophore like […] or zymosan in the absence or presence of increasing concentrations of a FLAP inhibitor. After incubation at 37° C. for 30 minutes, the samples are centrifuged and the plasma supernatant is subjected to reverse phase liquid chromatography coupled to tandem mass spectrometry to quantify levels of LTB4, 5-HETE, and AA production. Drug IC50 values are determined by non-linear regression analysis (GraphPad Prism).). […] As FLAP inhibitors are poorly water soluble drugs, the inventors have shown that such hydrophobic drugs can be formulated in a carrier comprising one or more vegetable oils, such as olive oil, and phosphatidylserine that are found on the Generally Accepted as Safe (GRAS) list and that such drugs can then be rapidly delivered and targeted to the brain and upper spinal cord. Hanson L R, et al, Drug Delivery 19(3):149-54, 2012.

[3] = MK-886 6 mg/kg IV 30 minutes prior to TBI, 1 hour after TBI
[4] = MK-886 6 mg/kg IV 30 minutes prior to TBI, measured 1 hour after TBI
[5] = single dose 15 minutes after TBI

CC(C)c1ccc2c(c1)c(SC(C)(C)C)c(CC(C)(C)C(=O)O)n2Cc1ccc(Cl)cc1 [MK-886, 1-[(4-Chlorophenyl)methyl]-3-[(1,1-dimethylethyl)thio]-α,α-dimethyl-5-(1-methylethyl)-1H-Indole-2-propanoic acid]
LTC4 levels lower than vehicle-treated injured animals, contralateral right hemisphere [1, 3]: 64%
LTC4 levels lower than vehicle-treated injured animals, ipsilateral left hemisphere [1, 3]: 85%
LTC4 level, contralateral right hemisphere [1, 4]: 2.6+/−0.80 pg/mg protein
LTC4 level, ipsilateral left hemisphere [1, 4]: 3.39+/−0.42 pg/mg protein
LTC4 level, ipsilateral cortex ([1]; MK-886-treated injured rats): undetectable
LTC4 level, ipsilateral hippocampus ([1]; MK-886-treated injured rats): undetectable
LTC4 level, contralateral hemisphere [1, 5]: below the detectable threshold
LTC4 level, ipsilateral hemisphere [1, 5]: below the detectable threshold
vestibulomotor performance on the rotarod compared to vehicle [2]: improved vestibulomotor performance
AA production (human whole blood): neither of the FLAP inhibitors effected AA production
